# US8710183B2, “Inhibitors of bacterial tyrosine kinase and uses thereof” (Centre National de la Recherche Scientifique (C.N.R.S.), priority 2008, dated 2014)
# Where no end group is shown, it is not given here.
# Legend:
# BY-kinase A1B2 = assay: Procedure 1: inhibition of A1B2 autokinase activity (radioactivity incorporated in A1B2); type: biochemical, Staphylococcus aureus; design: ActivitY (inhibition): concentration or dose not given beside the values; settings: for % of inhibition of A1B2 autokinase activity / Radioactivity incorporated in A1B2: A1B2 50 pmole
# Procedure: 50 pmole of the purified BY-kinase (or the dephosphorylated BY-kinase) are incubated for 15 min to 1 hour in the presence of 50 pmole of the drug in a final volume of 20 microliters. The ratio BY-kinase/drug varies from 1/1 to 1/100. The reaction is performed in a buffer specific of each BY-kinase (pH condition, salt concentrations, etc.). The incubation is then continued for 30″ to 1 h in the presence of 5 microCurie of radioactive ATP (^32P or ^33P) labeled on g-P (specific activity 3000 Ci/mmole) and 50 microMolar non-radioactive ATP. The reaction is stopped by adding 5 microliter of gel-electrophoresis loading buffer 5 fold concentrate and heating 5 min at 100° C.
# (§1) The procedure was applied for A1B2 [34] and CapO [20] Each Gene has been cloned in the pQE30 vector (Qiagen) to allow fusion of a histidines-tag fused to the N-terminal end of either A1B2 or CapO. This overproducing plasmid has been transformed in the Escherichia coli XL 1-blue strain. Cells have been incubated at 37° C. under shaking until A600 reached 0.5. IPTG was then added at a final concentration of 0.5 mM, and growth was continued for 3 h at 37° C. under shaking. Cells were harvested by centrifugation at 3000×g for 10 min, washed in buffer A (Tris-HCl 50 mM pH7.5, Nacl 200 mM, glycerol 10%, imidazole 10 mM) containing DNase I and RNase A at a final concentration of […] each, lysozyme 1 mg/ml, and protease inhibitors cocktail. Cells were disrupted by sonication. The resulting suspension was centrifuged at 4° C. for 30 min at 30,000×g. The supernatant was incubated with Ni-NTA matrix (Qiagen), suitable for purification of 6 histidines fusion proteins, for 30 min at 4° C. under gentle shaking. The protein-resin complex was packed into a column for washing and elution steps. The column was washed with buffer B (Tris-HCl 50 mM pH7.5, Nacl 200 mM, glycerol 10%, imidazole 20 mM). Protein elution was carried out with buffer C (Tris-HCl 50 mM pH7.5, NaCl 200 mM, glycerol 10%, imidazole 150 mM). Eluted fractions were collected, analyzed by SDS-PAGE. Appropriated fractions are pooled and dialyzed overnight against buffer D (Tris-HCl 50 mM, pH7.5, NaCl 100 mM, DTT 1 mM, MgCl2 1 mM, glycerol 20%) and used for inhibitory tests or stored at +4° C., −20° C., or −80° C.
# According to procedure 1, 50 pmole of A1B2 were incubated with either, 0 pmole, 50 pmole, or 500 pmole, or 5 nmol of BYK001 for 15 min at 37° C. in a final volume of […]. Then, incubation was continued for 30″, or 1′, or 2′ or 5′ in the presence of […] of [g-^32P] ATP (specific activity 3000 Ci/mmole). The amount of radioactivity incorporated in A1B2 was determined by fluid scintillation counting after gel-electophoresis. The percentage of inhibition of A1B2 autokinase activity is expressed relatively to the radioactivity incorporated in A1B2 when incubated without BYK001.
# [1] = test system: BY-kinase A1B2 (substrate CapO); assay: Procedure 2: inhibition of CapO phosphorylation by A1B2 (radioactivity incorporated in CapO); type: biochemical, Staphylococcus aureus; settings: A1B2 50 pmol, CapO 50 pmole
# Procedure: The procedure 2 is based on procedure 1, except that 5 pmole to 100 pmole of the protein substrate are also added either in the same time as the drug or concomitant with the radioactive ATP and the non-radioactive ATP.
# as §1
# According to procedure 2, 50 pmol of A1B2 and 50 pmole of a substrate of A1B2, namely the protein CapO, were incubated with either 50 pmole, or 500 pmole, or 5 nmol of BYK001 for 15 min at 37° C. in a final volume of […]. Then, incubation was continued for 30″, or 1′, or 2′ or 5′ in the presence of […] of [g-^32P] ATP (specific activity 3000 Ci/mmole). The amount of radioactivity incorporated in CapO was determined by fluid scintillation counting after gel-electophoresis. The percentage of inhibition of CapO phosphorylation by A1B2 is expressed relatively to CapO radioactivity when incubation was performed without BYK001.
# [2] = BYK001 50 pmole, incubation time 0.5 min
# [3] = BYK001 50 pmole, incubation time 1 min
# [4] = BYK001 50 pmole, incubation time 2 min
# [5] = BYK001 50 pmole, incubation time 5 min
# [6] = BYK001 500 pmole, incubation time 0.5 min
# [7] = BYK001 500 pmole, incubation time 1 min
# [8] = BYK001 500 pmole, incubation time 2 min
# [9] = BYK001 500 pmole, incubation time 5 min
# [10] = BYK001 5000 pmole, incubation time 0.5 min
# [11] = BYK001 5000 pmole, incubation time 1 min
# [12] = BYK001 5000 pmole, incubation time 2 min
# [13] = BYK001 5000 pmole, incubation time 5 min
substance,measurement,setting,value
BYK001: peptide with adenine PNA on lysine side chain: S-A-S-Y-Y-A-Y-K(PNA)-G-T-D; native S. aureus tyrosine cluster sequence (SASYYAYK(adenine PNA)GTD),% of inhibition of A1B2 autokinase activity,BY-kinase A1B2; [2],17.54%
same,Radioactivity incorporated in A1B2,BY-kinase A1B2; [2],29233 cpm
same,% of inhibition of A1B2 autokinase activity,BY-kinase A1B2; [3],16.10%
same,Radioactivity incorporated in A1B2,BY-kinase A1B2; [3],71683 cpm
same,% of inhibition of A1B2 autokinase activity,BY-kinase A1B2; [4],16.63%
same,Radioactivity incorporated in A1B2,BY-kinase A1B2; [4],132537 cpm
same,% of inhibition of A1B2 autokinase activity,BY-kinase A1B2; [5],14.68%
same,Radioactivity incorporated in A1B2,BY-kinase A1B2; [5],325711 cpm
same,% of inhibition of A1B2 autokinase activity,BY-kinase A1B2; [6],13.31%
same,Radioactivity incorporated in A1B2,BY-kinase A1B2; [6],30734 cpm
same,% of inhibition of A1B2 autokinase activity,BY-kinase A1B2; [7],15.17%
same,Radioactivity incorporated in A1B2,BY-kinase A1B2; [7],72475 cpm
same,% of inhibition of A1B2 autokinase activity,BY-kinase A1B2; [8],15.95%
same,Radioactivity incorporated in A1B2,BY-kinase A1B2; [8],133624 cpm
same,% of inhibition of A1B2 autokinase activity,BY-kinase A1B2; [9],14.87%
same,Radioactivity incorporated in A1B2,BY-kinase A1B2; [9],324983 cpm
same,% of inhibition of A1B2 autokinase activity,BY-kinase A1B2; [10],15.67%
same,Radioactivity incorporated in A1B2,BY-kinase A1B2; [10],29899 cpm
same,% of inhibition of A1B2 autokinase activity,BY-kinase A1B2; [11],15.11%
same,Radioactivity incorporated in A1B2,BY-kinase A1B2; [11],72528 cpm
same,% of inhibition of A1B2 autokinase activity,BY-kinase A1B2; [12],11.30%
same,Radioactivity incorporated in A1B2,BY-kinase A1B2; [12],141005 cpm
same,% of inhibition of A1B2 autokinase activity,BY-kinase A1B2; [13],15.20%
same,Radioactivity incorporated in A1B2,BY-kinase A1B2; [13],323749 cpm
same,ActivitY (inhibition),"BY-kinase A1B2; Table 5, inhibition of BY-kinase A1B2",15.00%
same,inhibitory effect on BY-kinase A1B2,BY-kinase A1B2; conclusion from procedures 1 and 2,inhibitory effect
same,inhibition,BY-kinase A1B2; summary,around 15%
same,% of inhibition of CapO phosphorylation by A1B2,[1]; [2],10.05%
same,Radioactivity incorporated in CapO,[1]; [2],3555 cpm
same,% of inhibition of CapO phosphorylation by A1B2,[1]; [3],9.33%
same,Radioactivity incorporated in CapO,[1]; [3],6388 cpm
same,% of inhibition of CapO phosphorylation by A1B2,[1]; [4],10.69%
same,Radioactivity incorporated in CapO,[1]; [4],15498 cpm
same,% of inhibition of CapO phosphorylation by A1B2,[1]; [5],8.11%
same,Radioactivity incorporated in CapO,[1]; [5],31901 cpm
same,% of inhibition of CapO phosphorylation by A1B2,[1]; [6],11.51%
same,Radioactivity incorporated in CapO,[1]; [6],3497 cpm
same,% of inhibition of CapO phosphorylation by A1B2,[1]; [7],10.55%
same,Radioactivity incorporated in CapO,[1]; [7],6302 cpm
same,% of inhibition of CapO phosphorylation by A1B2,[1]; [8],10.40%
same,Radioactivity incorporated in CapO,[1]; [8],15549 cpm
same,% of inhibition of CapO phosphorylation by A1B2,[1]; [9],9.99%
same,Radioactivity incorporated in CapO,[1]; [9],31251 cpm
same,% of inhibition of CapO phosphorylation by A1B2,[1]; [10],11.11%
same,Radioactivity incorporated in CapO,[1]; [10],3513 cpm
same,% of inhibition of CapO phosphorylation by A1B2,[1]; [11],10.36%
same,Radioactivity incorporated in CapO,[1]; [11],6315 cpm
same,% of inhibition of CapO phosphorylation by A1B2,[1]; [12],10.85%
same,Radioactivity incorporated in CapO,[1]; [12],15471 cpm
same,% of inhibition of CapO phosphorylation by A1B2,[1]; [13],10.78%
same,Radioactivity incorporated in CapO,[1]; [13],30974 cpm
